Results reported in patent US20040214803A1, “Use of vitamin d3 analogue for the treatment of autoimmune diabetes” (priority 2001, published 2004).

Tests used:
[1] = system: pancreatic islets of NOD mice; test: Insulitis scoring and immunohistology of pancreas sections; type: in vivo, mouse
Description: Pancreata were snap-frozen in Tissue Tek (Miles Laboratories, Elkhart, Ind.), and 5-μm-thick sections stained with hematoxilin and eosin. Insulitis score was quantified as follows: 0, no insulitis; 1, peri-insulitis; 2, insulitis in <50% of the islet; 3, insulitis in >50% of the islet. A mean score was calculated from 40-50 islets per individual pancreas. In addition, pancreas cryostat sections were stained with biotinylated mAb directed against CD4, CD8, B220, CD11b (all purchased from PharMingen), or CD11c (N418; American Type Culture Collection, Manassas, Va.), followed by streptavidin-peroxidase conjugate. […]
NOD female mice were treated daily with Compound A (0.03 μg/Kg body weight per os) or vehicle from 8 to 12 or 16 weeks of age and glycemia levels were monitored until 38 weeks of age. […]
FIG. 2. […] The results refer to the mean values ±SE of 8 mice/group, except for 1,25-dihydroxy-16,23Z-diene-26,27-hexafluoro-19-nor vitamin D3-treated mice where three mice were scored. The P values were calculated by Mann-Whitney U test. The severity of the infiltrate is shown in the right panel Islets from the same mice were scored for absence of insulitis (□, peri-insulitis (□), moderate insulitis with <50% infiltration of the islets ( ? ) , and severe insulitis, with >50% of infiltration of the islets (▪). […]

IL-12p75 = test: LPS-induced IL-12 production in vivo (serum ELISA); set-up: species or system mouse
Description: Lymphokine production was induced in 8 week-old female NOD mice by i.p. injection of 400 μg/mouse Salmonella abortus equi LPS (Sigma). Compound A was administered 72, 48, 24, and 1 h prior to LPS. Blood samples were collected 3 h post LPS injection and serum cytokines measured by ELISA.
Cytokines were quantified by two-sites ELISA. IFN-γ was determined using paired mAb from PharMingen (San Diego, Calif.). For capture, the mAb was AN-18.17.24. Samples were titrated and incubated overnight at 4° C. To detect bound IFN-γ plates were then incubated with biotinylated XMG1.2 mAb. […] The plates were washed again and incubated with the developing substrate p-nitrophenylphosphate disodium (Sigma) in diethanolamine buffer (pH 9.6; 100 μl/well). The reaction was stopped by adding 50 μl/well NaOH 3N, and absorbance was read at 405 nm. ELISA for IL-12p75 was performed as described (Gately, M. K., et al., Current Protocols Immunol. 1995, 3, 15:6.16.11-16.16.15). Cytokines were quantified from two to three titration points using standard curves generated by purified recombinant mouse cytokines and results expressed as cytokine concentration in ng or pg/ml. Detection limits were 15 pg/ml for both cytokines. […]
FIG. 3. […] IFN-γ, IL-12p75 and serum calcium levels were quantified 3 h post LPS injection. […] The P values were calculated by Mann-Whitney U test (* indicates P<0.05 vs. vehicle-treated NOD mice).

[2] = Serum calcium levels after Compound A treatment; type: in vivo, mouse; settings: 0.03 μg/Kg per os daily for 4 days before LPS injection, NOD mice
Description: In this experiment the capacity of Compound A to inhibit LPS-induced IL-12 and IFN-γ production in vivo is tested. Mice were pre-treated with vehicle or with 0.03 μg/Kg Compound A administered per os daily for 4 days before LPS injection.
FIG. 3. […] Compound A (0.03 μg/Kg) was administered orally in miglyol to NOD mice 72, 48, 24 and 1 h before LPS injection. IFN-γ, IL-12p75 and serum calcium levels were quantified 3 h post LPS injection. Bars represent the mean ±SE of 10 mice/group. The P values were calculated by Mann-Whitney U test (* indicates P<0.05 vs. vehicle-treated NOD mice).

Question: What does the source list for `C[C@H](C/C=C\C(O)(C(F)(F)F)C(F)(F)F)C1=CC[C@H]2/C(=C/C=C3C[C@@H](O)C[C@H](O)C3)CCC[C@]12C` [Compound A, 1,25-dihydroxy-16,23Z-diene-26,27-hexafluoro-19-nor vitamin D3]?
Answer: functional islet β cells (positive staining for insulin) ([1]; at 30 weeks of age, compared to vehicle-treated NOD mice at 30 weeks): more frequent; score and severity of insulitis ([1]; treated 8 to 16 weeks, analysed at 30 weeks of age, compared to 8 weeks old NOD mice): similar; LPS-induced IL-12p75 production (IL-12p75; 0.03 μg/Kg per os 72, 48, 24, 1 h before LPS, serum 3 h post LPS): inhibited significantly; potency in inhibiting LPS-induced IL-12p75 and IFN-γ production relative to 1,25(OH)2D3 (IL-12p75; higher than 1,25(OH)2D3 (literature comparison)): about 100 fold; hypercalcemia (serum calcium levels) [2]: did not induce hypercalcemia
